Calls of active or inactive are those of the source. How the calls were made is not given here.
Target: D(4) dopamine receptor (Homo sapiens) (UniProt P21917)
Experiment: dopamine D4 receptor antagonists (AID 743371)
Conditions: D4 receptor antagonist assay; at 10 µM; stronger effect = higher value

SMILES | inhibition
O=S(=O)(c1ccccc1OC(F)(F)F)N1CCOC(CCc2ccccc2)C1 (stereo not given) | 6% (inactive)
O=C(c1ccc(Cl)cc1)N1CCOC(CCc2ccccc2)C1 (stereo not given) | 7% (inactive)
O=C(c1ccc2c(c1)OCCO2)N1CCOC(CCc2ccccc2)C1 (stereo not given) | -4% (inactive)
COc1ccc(NC(=O)N2CCOC(CCc3ccccc3)C2)cc1 (stereo not given) | -2% (inactive)
O=C(c1cc(F)c(F)c(F)c1)N1CCOC(CCc2ccccc2)C1 (stereo not given) | 10% (inactive)
O=S(=O)(c1ccc2ccccc2c1)N1CCOC(CCc2ccccc2)C1 (stereo not given) | -3% (inactive)
O=C(Nc1ccccc1F)N1CCOC(CCc2ccccc2)C1 (stereo not given) | 4% (inactive)
O=S(=O)(c1ccc(F)cc1)N1CCOC(CCc2ccccc2)C1 (stereo not given) | -8% (inactive)
O=C(Nc1ccc(F)cc1)N1CCOC(CCc2ccccc2)C1 (stereo not given) | 5% (inactive)
Cc1ccc(NC(=O)N2CCOC(CCc3ccccc3)C2)cc1 (stereo not given) | 12% (inactive)
c1ccc(CCC2CN(c3ccc4ncccc4c3)CCO2)cc1 (stereo not given) | 16% (inactive)
O=C(Nc1ccccc1)N1CCOC(CCc2ccccc2)C1 (stereo not given) | 3% (inactive)
O=C(c1cccc(F)c1)N1CCOC(CCc2ccccc2)C1 (stereo not given) | 1% (inactive)
O=C(c1ccc2ccccc2n1)N1CCOC(CCc2ccccc2)C1 (stereo not given) | -1% (inactive)
O=S(=O)(c1cccc(F)c1)N1CCOC(CCc2ccccc2)C1 (stereo not given) | 13% (inactive)
O=C(c1cccnc1)N1CCOC(CCc2ccccc2)C1 (stereo not given) | 18% (inactive)
COc1ccc(C(=O)N2CCOC(CCc3ccccc3)C2)cc1 (stereo not given) | -5% (inactive)
CC(C)(C)c1ccc(S(=O)(=O)N2CCOC(CCc3ccccc3)C2)cc1 (stereo not given) | 5% (inactive)
O=C(Nc1cccc(F)c1)N1CCOC(CCc2ccccc2)C1 (stereo not given) | -11% (inactive)
Cc1ccc(C(=O)N2CCOC(CCc3ccccc3)C2)cc1 (stereo not given) | 17% (inactive)
O=C(Nc1ccc(Cl)cc1)N1CCOC(CCc2ccccc2)C1 (stereo not given) | 16% (inactive)
Cc1cccc(S(=O)(=O)N2CCOC(CCc3ccccc3)C2)c1 (stereo not given) | 13% (inactive)
Cc1cc(C)c(C(=O)N2CCOC(CCc3ccccc3)C2)c(C)c1 (stereo not given) | -8% (inactive)
O=C(c1ccno1)N1CCOC(CCc2ccccc2)C1 (stereo not given) | -14% (inactive)

Second part, the compound after the results:

inhibition | SMILES
39% (inactive) | Clc1ccc(CN2CCO[C@@H](CCc3ccccc3)C2)cc1
88% | FC(F)(F)Oc1cccc(CN2CCOC(CCc3ccccc3)C2)c1 (stereo not given)
35% (inactive) | c1ccc(CCC2CN(Cc3cccnc3)CCO2)cc1 (stereo not given)
74% | c1ccc(CCC2CN(Cc3ccccc3)CCO2)cc1 (stereo not given)
86% | COc1ccc(CN2CCO[C@H](CCc3ccccc3)C2)cc1
15% (inactive) | Cc1ccccc1NC(=O)N1CCOC(CCc2ccccc2)C1 (stereo not given)
2% (inactive) | O=S(=O)(c1ccccc1)N1CCOC(CCc2ccccc2)C1 (stereo not given)
44% (inactive) | COc1ccc(CN2CCO[C@@H](CCc3ccccc3)C2)cc1
23% (inactive) | c1ccc(CCC2CN(Cc3ccccn3)CCO2)cc1 (stereo not given)
17% (inactive) | Cn1c(N2CCOC(CCc3ccccc3)C2)nc2ccccc21 (stereo not given)
98% | COc1ccc(CN2CCOC(CCc3ccccc3)C2)cc1 (stereo not given)
5% (inactive) | c1ccc(CCC2CN(c3ccccc3)CCO2)cc1 (stereo not given)
2% (inactive) | O=C(Nc1ccccc1Cl)N1CCOC(CCc2ccccc2)C1 (stereo not given)
25% (inactive) | FC(F)(F)Oc1ccc(CN2CCO[C@@H](CCc3ccccc3)C2)cc1
13% (inactive) | c1ccc(CCC2CN(Cc3ccncc3)CCO2)cc1 (stereo not given)
97% | Clc1ccc(CN2CCOC(CCc3ccccc3)C2)cc1 (stereo not given)
96% | FC(F)(F)Oc1ccc(CN2CCO[C@H](CCc3ccccc3)C2)cc1
96% | Clc1ccc(CN2CCO[C@H](CCc3ccccc3)C2)cc1
13% (inactive) | O=S(=O)(c1ccccc1Cl)N1CCOC(CCc2ccccc2)C1 (stereo not given)
6% (inactive) | Cc1ccc(N2CCOC(CCc3ccccc3)C2)cc1 (stereo not given)
94% | FC(F)(F)Oc1ccc(CN2CCOC(CCc3ccccc3)C2)cc1 (stereo not given)
9% (inactive) | O=S(=O)(c1ccccc1F)N1CCOC(CCc2ccccc2)C1 (stereo not given)
88% | Fc1ccc(CN2CCOC(CCc3ccccc3)C2)cc1 (stereo not given)
51% | Fc1cccc(F)c1CN1CCOC(CCc2ccccc2)C1 (stereo not given)
54% | Cc1ccccc1CN1CCOC(CCc2ccccc2)C1 (stereo not given)
5% (inactive) | O=C(c1ccccc1)N1CCOC(CCc2ccccc2)C1 (stereo not given)

Reference: PubChem BioAssay AID743371 (Vanderbilt Specialized Chemistry Center, 2014)
